According to patent publication US9969762B2:
In brackets after ≈: the same amount, converted by molar mass. Like-named read-outs stand apart in the source and are kept apart here.

What was measured:
[1] = test system: Agrobacterium tumefaciens; assay: Antibacterial activity (MIC and MBC) in TY medium; type: cell-based; settings: for MBC: plated on TY agar
[2] = test system: Pectobacterium atrosepticum; assay: Antibacterial activity (MIC and MBC) in TY medium; type: cell-based; settings: for MBC: plated on TY agar
[3] = test system: Agrobacterium tumefaciens, Pectobacterium atrosepticum and Dickeya dianthicola bacteria; assay: Antibacterial activity, summary statements over the bacteria tested; type: cell-based; settings: for inhibition of the growth of the bacteria (in words): after 36 h of incubation at 30° C., compared with 4-NPO
Phytophthora infestans = assay: microbe, parasite or virus in culture; type: cell-based; settings: for Average diameters of inhibition zone: after 6 days, 20 mg in 200 μl distilled water, spots of 10 μl
Dickeya dianthicola = assay: Antibacterial activity (MIC and MBC) in TY medium; type: cell-based; settings: for MBC: plated on TY agar
Fusarium roseum = settings: for Inhibition of the growth of the Fusarium roseum fungi: compound in methanol, more than 10 days at 20° C.; for Inhibition of the growth of the fungi: compound in DMSO, 10 days at 20° C.
Procedure: (§1) The antifungal activity of the N-alkyl-glycosyl(di)amine derivatives of formula (I) and of the N-alkyl-glycamine derivatives of formula (III) synthesized according to the process of the invention was evaluated on two fungi: Fusarium roseum and Fusarium sambucinum.
(§2) For this, 500 μl of solution comprising the test derivative, dissolved in DMSO or methanol, are mixed with 19.5 ml of malt agar medium (Sigma aldrich) allowing the growth of these two Fusarium isolates. The test derivative is prepared in 2 ml of methanol, then mixed with 18 ml of malt agar medium (Sigma aldrich). A spot of 10 μl of culture of each Fusarium is then deposited at the center of each Petri dish. After 10 days of incubation at 20° C., the growth diameters are measured.
(§3) The range of concentrations of N-alkyl-glycosyl(di)amine derivatives of formula (I) tested ranges from 0.1 to 25 μmol/ml.
(§4) The Fusarium growth on media containing the various molecules is compared with that obtained only with DMSO or methanol.
(§5) The same antifungal evaluation protocol as the one previously described with the compound Ij was applied for other N-alkyl-glycosyl(di)amine derivatives of formula (I) and N-alkyl-glycamine derivatives of formula (III) at concentrations ranging from 1 to 20 μmol/ml.
(§6) 2 ml of solution comprising the test compound dissolved in methanol are mixed with 18 ml of agar malt medium (Sigma aldrich) allowing the growth of these two Fusarium isolates. A spot of 10 μl of culture of each Fusarium is then deposited at the center of each Petri dish. After more than 10 days of incubation at 20° C., the growth diameters are measured.

Fusarium sambucinum = settings: for Inhibition of the growth of the Fusarium sambucinum fungi: compound in methanol, more than 10 days at 20° C.; for Inhibition of the growth of the fungi: compound in DMSO, 10 days at 20° C.
Procedure: as §1, §2, §3, §4, §5, §6

[4] = 36 h of culture at 30° C., TY medium
[5] = Dickeya dianthicola, 36 h of culture at 30° C., TY medium, read-out: MIC
[6] = Dickeya dianthicola, 36 h of culture at 30° C., read-out: MBC

Structure (SMILES)	MIC [1, 4]	MIC [2, 4]	bactericidal activity (in words) [3]	inhibition of the growth of the bacteria (in words) [3]	Average diameters of inhibition zone (Phytophthora infestans)	MBC ([1]; 36 h of culture at 30° C.)	MBC ([2]; 36 h of culture at 30° C.)	Inhibition of the growth of the Fusarium roseum fungi (Fusarium roseum; 1 μmol/ml)	Inhibition of the growth of the Fusarium roseum fungi (Fusarium roseum; 2.5 μmol/ml)	Inhibition of the growth of the Fusarium roseum fungi (Fusarium roseum; 5 μmol/ml)	Inhibition of the growth of the Fusarium roseum fungi (Fusarium roseum; 10 μmol/ml)	Inhibition of the growth of the Fusarium roseum fungi (Fusarium roseum; 20 μmol/ml)	Inhibition of the growth of the Fusarium sambucinum fungi (Fusarium sambucinum; 1 μmol/ml)	Inhibition of the growth of the Fusarium sambucinum fungi (Fusarium sambucinum; 2.5 μmol/ml)	Inhibition of the growth of the Fusarium sambucinum fungi (Fusarium sambucinum; 5 μmol/ml)	Inhibition of the growth of the Fusarium sambucinum fungi (Fusarium sambucinum; 10 μmol/ml)	Inhibition of the growth of the Fusarium sambucinum fungi (Fusarium sambucinum; 20 μmol/ml)	also measured
CC1OC(NCCCCCNC2OC(C)[C@H](O)C(O)C2O)C(O)C(O)[C@H]1O (stereo partly drawn) [Ig]	125 µg/mL (≈ 317 µM)	125 µg/mL (≈ 317 µM)	showed a bactericidal activity	inhibition of the growth of the bacteria was observed														MBC ([1]; Agrobacterium tumefaciens, 36 h, 36 h of culture at 30° C., read-out: MBC): 250 µg/mL (≈ 634 µM); MBC ([2]; Pectobacterium atrosepticum, 36 h, 36 h of culture at 30° C., read-out: MBC): 250 µg/mL (≈ 634 µM)
CC(O)C(O)C(O)C(O)CNCCCCCCCCCCCCN (stereo not drawn) [compound IIId]	52.5 µg/mL (≈ 151 µM)	62.5 µg/mL (≈ 179 µM)	showed a bactericidal activity	inhibition of the growth of the bacteria was observed	0 mm	250 µg/mL (≈ 717 µM)	62.5 µg/mL (≈ 179 µM)											MIC (Dickeya dianthicola; [4]): 16 µg/mL (≈ 45.9 µM); MBC (Dickeya dianthicola; 36 h of culture at 30° C.): 125 µg/mL (≈ 359 µM)
CC1OC(NCCCCCCCCCCCCN)C(O)C(O)C1O (stereo not drawn) [compound Ii]	16 µg/mL (≈ 46.2 µM)	8 µg/mL (≈ 23.1 µM)	showed a bactericidal activity			32 µg/mL (≈ 92.3 µM)	16 µg/mL (≈ 46.2 µM)	0%	34%	93%	93%	100%	28%	60%	100%	100%	100%	
O=[N+]([O-])c1cc[n+]([O-])cc1 [4-NPO, 4-Nitropyridine-N-oxide, reference compound]																		MIC ([1]; Agrobacterium tumefaciens, 36 h, 36 h of culture at 30° C., TY medium, read-out: MIC): 125 µg/mL (≈ 892 µM); MIC ([1]; Agrobacterium tumefaciens, reference bacteriostatic molecule, read-out: MIC): 125 µg/mL (≈ 892 µM); MIC ([2]; Pectobacterium atrosepticum, 36 h, 36 h of culture at 30° C., TY medium, read-out: MIC): 125 µg/mL (≈ 892 µM); MIC ([2]; Pectobacterium atrosepticum, reference bacteriostatic molecule, read-out: MIC): 125 µg/mL (≈ 892 µM); MIC (Dickeya dianthicola; [5]): 16 µg/mL (≈ 114 µM); MBC (Dickeya dianthicola; [6]): 16 µg/mL (≈ 114 µM); MIC (Dickeya dianthicola; Dickeya dianthicola, reference bacteriostatic molecule, read-out: MIC): 16 µg/mL (≈ 114 µM)
CCCCCNC1OC(C)[C@H](O)C(O)C1O (stereo partly drawn) [compound Id]	62.5 µg/mL (≈ 268 µM)	62.5 µg/mL (≈ 268 µM)	showed a bactericidal activity	inhibition of the growth of the bacteria was observed		250 µg/mL (≈ 1070 µM)	250 µg/mL (≈ 1070 µM)											
CCCCCNC1OC(C)[C@H](O)C(O)C1O (stereo partly drawn) [compound Ie]	4 µg/mL (≈ 17.1 µM)	16 µg/mL (≈ 68.6 µM)	showed a bactericidal activity	inhibition of the growth of the bacteria was observed		8 µg/mL (≈ 34.3 µM)	16 µg/mL (≈ 68.6 µM)	94%	96%	100%	100%	100%	95%	96%	100%	100%	100%	zone of inhibition at 20000 µg/disc (Phytophthora infestans; Phytophthora infestans, 144 h, read-out: Average diameters of inhibition zone): 21 mm; MIC (Dickeya dianthicola; [5]): 16 µg/mL (≈ 68.6 µM); MBC (Dickeya dianthicola; [6]): 16 µg/mL (≈ 68.6 µM)
CCCCCCCCCCCCNCC(O)C(O)C(O)C(O)CO (stereo not drawn) [compound IIIb]	16 µg/mL (≈ 45.8 µM)	32 µg/mL (≈ 91.6 µM)	showed a bactericidal activity	inhibition of the growth of the bacteria was observed	20 mm	32 µg/mL (≈ 91.6 µM)	32 µg/mL (≈ 91.6 µM)	100%	100%	100%			96%	96%	100%			MIC (Dickeya dianthicola; [4]): 62.5 µg/mL (≈ 179 µM); MBC (Dickeya dianthicola; 36 h of culture at 30° C.): 62.5 µg/mL (≈ 179 µM)
CCCCCCCCCCCCNC1OC(CO)C(O)C(O)C1O (stereo not drawn) [compound Ij]	8 µg/mL (≈ 23 µM)	16 µg/mL (≈ 46 µM)	showed a bactericidal activity	inhibition of the growth of the bacteria was observed	24 mm	16 µg/mL (≈ 46 µM)												Inhibition of the growth of the fungi (Fusarium roseum; 1 μmol/ml): 100%; Inhibition of the growth of the fungi (Fusarium roseum; 2.5 μmol/ml): 100%; Inhibition of the growth of the fungi (Fusarium roseum; 5 μmol/ml): 100%; Inhibition of the growth of the fungi (Fusarium roseum; 10 μmol/ml): 100%; Inhibition of the growth of the fungi (Fusarium roseum; 20 μmol/ml): 100%; Inhibition of the growth of the fungi (Fusarium roseum; 25 μmol/ml): 100%; Inhibition of the growth of the fungi (Fusarium sambucinum; 1 μmol/ml): 50%; Inhibition of the growth of the fungi (Fusarium sambucinum; 2.5 μmol/ml): 50%; Inhibition of the growth of the fungi (Fusarium sambucinum; 5 μmol/ml): 100%; Inhibition of the growth of the fungi (Fusarium sambucinum; 10 μmol/ml): 100%; Inhibition of the growth of the fungi (Fusarium sambucinum; 20 μmol/ml): 100%; Inhibition of the growth of the fungi (Fusarium sambucinum; 25 μmol/ml): 100%
CC1OC(NCCCCCNC2OC(C)[C@H](O)C(O)C2O)C(O)C(O)[C@H]1O (stereo partly drawn) [compound If]	>500 µg/mL	250 µg/mL (≈ 634 µM)		inhibition of the growth of the bacteria was observed														
CC1OC(NCCCCCNC2OC(C)[C@H](O)C(O)C2O)C(O)C(O)[C@H]1O (stereo partly drawn) [compound Ih]	62.5 µg/mL (≈ 158 µM)	62.5 µg/mL (≈ 158 µM)	showed a bactericidal activity	inhibition of the growth of the bacteria was observed		500 µg/mL (≈ 1270 µM)	125 µg/mL (≈ 317 µM)	0%	28%	90%	93%	93%	12%	27%	100%	100%	100%	
CCCCCCCCCCCCNC1OC(CO)C(O)C(O)C1O (stereo not drawn) [compound Ik]	2 µg/mL (≈ 5.76 µM)	16 µg/mL (≈ 46 µM)	showed a bactericidal activity	inhibition of the growth of the bacteria was observed	24 mm		32 µg/mL (≈ 92.1 µM)	96%	96%	96%			96%	96%	96%			
CCCCCNC1OC(C)[C@H](O)C(O)C1O (stereo partly drawn) [compound Ic]	125 µg/mL (≈ 536 µM)	62.5 µg/mL (≈ 268 µM)		inhibition of the growth of the bacteria was observed			>500 µg/mL	0%	18%	99%	99%	100%	10%	33%	89%	90%	100%	
CCCCNC1OC(C)[C@H](O)C(O)C1O (stereo partly drawn) [compound Ib]								0%	0%	0%	70%	88%	0%	0%	4%	76%	90%	
